# Test results taken from patent publication US7101878B1 (Agouron Pharmaceuticals, Inc., priority 1998, dated 2006).
# Biological target: T1, mouse GnRH receptor (Mus musculus, UniProt Q01776)
# T1 construct: expressed in transfected cells; host or cells: 293 cells
# T1 sequence (Q01776 1-327): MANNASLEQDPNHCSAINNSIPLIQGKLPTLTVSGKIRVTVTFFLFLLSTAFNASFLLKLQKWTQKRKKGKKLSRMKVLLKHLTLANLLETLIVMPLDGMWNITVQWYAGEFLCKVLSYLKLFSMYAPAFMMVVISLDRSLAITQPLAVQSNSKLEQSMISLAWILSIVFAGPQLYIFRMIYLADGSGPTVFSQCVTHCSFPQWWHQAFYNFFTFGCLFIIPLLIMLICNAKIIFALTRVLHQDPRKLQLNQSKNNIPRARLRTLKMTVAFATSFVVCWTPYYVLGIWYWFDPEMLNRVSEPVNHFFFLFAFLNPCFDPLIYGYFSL
# Assay: Radioligand binding, 125I-GnRH-A, 293 cells expressing mouse GnRH receptors
# Conditions: 10 uM; read-out: % Inhib. @ 10 uM mGnRH
# Summary of the method: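 Bound label captured on 0.1% polyethyleneimine-treated GF/C filters, washed three times with PBS, counted. IC50 derived; identical set-up for every species.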
row,inhibition at 10 µM [%],SMILES
1,41,Cc1cc2c(cc1Cc1ccc(C(=O)N3CCC(CNC(=O)C(F)(F)F)CC3)o1)C(C)(C)CCC2(C)C [drawing 1308]
2,77,Cc1cc2c(cc1Cc1ccc(C(=O)N(CCC#N)Cc3ccco3)o1)C(C)(C)CCC2(C)C [drawing 1309]
3,94,Cc1cc2c(cc1Cc1ccc(C(=O)N(Cc3cccnc3)CC3CC=CCC3)o1)C(C)(C)CCC2(C)C (stereo not shown) [drawing 1318]
4,98,Cc1cc2c(cc1Cc1ccc(C(=O)NC(CO)CC(C)C)o1)C(C)(C)CCC2(C)C (stereo not shown) [drawing 1320]
5,47,Cc1cc2c(cc1Cc1ccc(C(=O)NCCc3ccc(Br)cc3)o1)C(C)(C)CCC2(C)C [drawing 1371]
6,74,Cc1cc2c(cc1Cc1ccc(C(=O)NCc3ccccc3-c3ccccc3)o1)C(C)(C)CCC2(C)C [drawing 1372]
7,57,Cc1cc2c(cc1Cc1ccc(C(=O)NC3CCc4ccccc43)o1)C(C)(C)CCC2(C)C (stereo not shown) [drawing 1375]
8,101,COC(CCCNC(=O)c1ccc(Cc2cc3c(cc2C)C(C)(C)CCC3(C)C)o1)OC [drawing 1383]
9,96,Cc1cc2c(cc1Cc1ccc(C(=O)NCCCO)o1)C(C)(C)CCC2(C)C [drawing 1417]
10,89,Cc1cc2c(cc1Cc1ccc(C(=O)N(C)C3CCN(C)CC3)o1)C(C)(C)CCC2(C)C [drawing 1420]
11,73,COc1ccccc1N1CCN(C(=O)c2ccc(Cc3cc4c(cc3C)C(C)(C)CCC4(C)C)o2)CC1 [drawing 1421]
12,70,Cc1cc2c(cc1Cc1ccc(C(=O)N3CCc4ccccc4C3)o1)C(C)(C)CCC2(C)C [drawing 1422]
13,43,Cc1cc2c(cc1Cc1ccc(C(=O)N3CCC(O)(c4ccc(Cl)cc4)CC3)o1)C(C)(C)CCC2(C)C [drawing 1423]
14,71,CC(=O)N1CCN(C(=O)c2ccc(Cc3cc4c(cc3C)C(C)(C)CCC4(C)C)o2)CC1 [drawing 1424]
15,48,Cc1cc2c(cc1Cc1ccc(C(=O)N3CCC(Cc4ccccc4)CC3)o1)C(C)(C)CCC2(C)C [drawing 1425]
16,84,Cc1cc2c(cc1Cc1ccc(C(=O)N3CC(C)OC(C)C3)o1)C(C)(C)CCC2(C)C (stereo not shown) [drawing 1426]
17,104,Cc1cc2c(cc1Cc1ccc(C(=O)N3CCC(CCCC4CCN(CCO)CC4)CC3)o1)C(C)(C)CCC2(C)C [drawing 1427]
18,68,CCN(CC)CCN(C)C(=O)c1ccc(Cc2cc3c(cc2C)C(C)(C)CCC3(C)C)o1 [drawing 1428]
19,69,Cc1cc2c(cc1Cc1ccc(C(=O)N3CCN(CCO)CC3)o1)C(C)(C)CCC2(C)C [drawing 1429]
20,69,Cc1cc2c(cc1Cc1ccc(C(=O)N3CC=CCC3)o1)C(C)(C)CCC2(C)C [drawing 1430]
21,79,Cc1cc2c(cc1Cc1ccc(C(=O)N3CCN(CC(=O)N4CCCC4)CC3)o1)C(C)(C)CCC2(C)C [drawing 1432]
22,88,Cc1cc2c(cc1Cc1ccc(C(=O)N3CCCCCCC3)o1)C(C)(C)CCC2(C)C [drawing 1433]
23,83,COc1ccc(C(NC(=O)c2ccc(Cc3cc4c(cc3C)C(C)(C)CCC4(C)C)o2)C2CC2)cc1 (stereo not shown) [drawing 1435]
24,43,Cc1cc2c(cc1Cc1ccc(C(=O)N3CCCCC3C(=O)NC(c3ccccc3)c3ccccc3)o1)C(C)(C)CCC2(C)C (stereo not shown) [drawing 1436]
25,99,Cc1cc2c(cc1Cc1ccc(C(=O)NCCCCCO)o1)C(C)(C)CCC2(C)C [drawing 1437]
26,84,Cc1cc2c(cc1Cc1ccc(C(=O)NCC(C)(C)CO)o1)C(C)(C)CCC2(C)C [drawing 1438]

row,inhibition at 10 µM [%],SMILES
1,83,C=CCN(CC=C)C(=O)c1ccc(Cc2cc3c(cc2C)C(C)(C)CCC3(C)C)o1 [drawing 1440]
2,74,CC(=O)N(C)C1CCN(C(=O)c2ccc(Cc3cc4c(cc3C)C(C)(C)CCC4(C)C)o2)C1 (stereo not shown) [drawing 1441]
3,90,Cc1cc2c(cc1Cc1ccc(C(=O)NCC(C)O)o1)C(C)(C)CCC2(C)C (stereo not shown) [drawing 1443]
4,55,Cc1cc2c(cc1Cc1ccc(C(=O)NC(C)(CO)CO)o1)C(C)(C)CCC2(C)C [drawing 1444]
5,65,Cc1cc2c(cc1Cc1ccc(C(=O)NCC3(O)CCCCC3)o1)C(C)(C)CCC2(C)C [drawing 1445]
6,90,Cc1cc2c(cc1Cc1ccc(C(=O)N3CC(C)CC(C)C3)o1)C(C)(C)CCC2(C)C (stereo not shown) [drawing 1446]
7,72,Cc1cc2c(cc1Cc1ccc(C(=O)NC(C)CCCC(C)C)o1)C(C)(C)CCC2(C)C (stereo not shown) [drawing 1447]
8,84,Cc1cc2c(cc1Cc1ccc(C(=O)NCCC3=CCCCC3)o1)C(C)(C)CCC2(C)C [drawing 1448]
9,56,Cc1cc2c(cc1Cc1ccc(C(=O)NCCNc3cccc4ccccc34)o1)C(C)(C)CCC2(C)C [drawing 1449]
10,72,Cc1cc2c(cc1Cc1ccc(C(=O)NC(C)(C)C)o1)C(C)(C)CCC2(C)C [drawing 1450]
11,81,CCN(CCO)C(=O)c1ccc(Cc2cc3c(cc2C)C(C)(C)CCC3(C)C)o1 [drawing 1451]
12,73,Cc1cc2c(cc1Cc1ccc(C(=O)NCCc3ccccc3)o1)C(C)(C)CCC2(C)C [drawing 1452]
13,91,COCC(C)NC(=O)c1ccc(Cc2cc3c(cc2C)C(C)(C)CCC3(C)C)o1 (stereo not shown) [drawing 1454]
14,52,Cc1ccc(N2CCN(C(=O)c3ccc(Cc4cc5c(cc4C)C(C)(C)CCC5(C)C)o3)CC2)c(C)c1 [drawing 1455]
15,60,Cc1cc2c(cc1Cc1ccc(C(=O)NC3CCC3)o1)C(C)(C)CCC2(C)C [drawing 1456]
16,96,Cc1cc2c(cc1Cc1ccc(C(=O)N3CCC(N4CCCC4)CC3)o1)C(C)(C)CCC2(C)C [drawing 1458]
17,76,Cc1cc2c(cc1Cc1ccc(C(=O)N(CCc3ccccn3)Cc3ccccc3)o1)C(C)(C)CCC2(C)C [drawing 1459]
18,104,Cc1cc2c(cc1Cc1ccc(C(=O)N(CCN3CCCCC3)Cc3ccccc3)o1)C(C)(C)CCC2(C)C [drawing 1460]
19,91,Cc1cc2c(cc1Cc1ccc(C(=O)N(CCN3CCOCC3)Cc3ccccc3)o1)C(C)(C)CCC2(C)C [drawing 1461]
20,100,Cc1cc2c(cc1Cc1ccc(C(=O)N(CCN3CCCC3)Cc3ccccc3)o1)C(C)(C)CCC2(C)C [drawing 1462]
21,72,Cc1cc2c(cc1Cc1ccc(C(=O)NC(C)C3CCCCC3)o1)C(C)(C)CCC2(C)C (stereo not shown) [drawing 1463]
22,98,Cc1cc2c(cc1Cc1ccc(C(=O)NC3(CO)CCCC3)o1)C(C)(C)CCC2(C)C [drawing 1464]
23,76,Cc1cc2c(cc1Cc1ccc(C(=O)NC(CO)CC3CCCCC3)o1)C(C)(C)CCC2(C)C (stereo not shown) [drawing 1465]
24,97,Cc1cc2c(cc1Cc1ccc(C(=O)NC[C@@H]3CCCC[C@H]3O)o1)C(C)(C)CCC2(C)C [drawing 1466]
25,63,Cc1cc2c(cc1Cc1ccc(C(=O)N3CCC(C(=O)c4ccc(F)cc4)CC3)o1)C(C)(C)CCC2(C)C [drawing 1467]
26,58,Cc1cc2c(cc1Cc1ccc(C(=O)N3CCN(c4cccc(C)c4C)CC3)o1)C(C)(C)CCC2(C)C [drawing 1468]
